Drawing on PubChem BioAssay (NCI), this text covers TGI and GI50 for 16 molecules.

Among the test systems are CCRF-CEM leukemia; OVCAR-8 ovarian; HOP-62 NSCLC; SK-MEL-5 melanoma; SW-620 colon; SF-539 CNS; RXF 393 renal; MOLT-4 leukemia; LOX IMVI melanoma; NCI/ADR-RES ovarian.
Holding throughout (test): growth of human tumour cells (NCI), 48 h

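How tested: cells in 96-well plates exposed to compound for 48 hours at five concentrations. The concentration for 50% growth inhibition is given as GI50. TGI: total growth inhibition.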

Take `O=C1C(Cl)N(c2ccccc2Cl)C1c1c[nH]c2ccccc12` (stereo not drawn): the TGI with CCRF-CEM leukemia, in the assay on OVCAR-8 ovarian, in the assay on HOP-62 NSCLC, in the assay on SK-MEL-5 melanoma, in the assay on SW-620 colon and in the assay on SF-539 CNS was more than 100 µM each time. Besides, the TGI in the assay on RXF 393 renal and in the assay with MOLT-4 leukemia was more than 100 µM each time.

In the case of `Oc1ccc(C(=C(Br)c2ccccc2)c2ccc(O)cc2)cc1`, the TGI in the assay with CCRF-CEM leukemia was 32.3 µM; in the assay on OVCAR-8 ovarian it was 22.2 µM; with LOX IMVI melanoma it was 17 µM; with HOP-62 NSCLC, 22.2 µM; in the assay on SK-MEL-5 melanoma it was 12.5 µM; with NCI/ADR-RES ovarian, 12.6 µM. Further, the TGI stood at 14.9 µM in the assay with SW-620 colon, 18.8 µM with SF-539 CNS, 27.2 µM with RXF 393 renal and 40.5 µM in the assay with MOLT-4 leukemia.

Take `C=C(C#N)C(=O)OCC(CC)CC.C=C(C#N)C(=O)OCC(CC)CC.CS(C)=O.CS(C)=O.Nc1c(N=Nc2ccc(-c3ccc(N=Nc4cc(S(=O)(=O)[O-])c5ccccc5c4N)cc3)cc2)cc(S(=O)(=O)[O-])c2ccccc12.[Pt+2]`: the GI50 with CCRF-CEM leukemia is 30.7 µM; in the assay on OVCAR-8 ovarian it was 19.2 µM; in the assay on LOX IMVI melanoma, 35 µM; in the assay on HOP-62 NSCLC, more than 82.8 µM; in the assay with SK-MEL-5 melanoma, 34.1 µM; in the assay on NCI/ADR-RES ovarian, 34 µM. Further, the GI50 is 25 µM in the assay with SW-620 colon, 84.7 µM in the assay with SF-539 CNS, 19.5 µM in the assay with RXF 393 renal and 27.1 µM in the assay on MOLT-4 leukemia. The TGI in the assay with CCRF-CEM leukemia was more than 100 µM; in the assay on OVCAR-8 ovarian, 42.3 µM; with LOX IMVI melanoma, more than 84.9 µM; with HOP-62 NSCLC, more than 100 µM; in the assay with SK-MEL-5 melanoma it was more than 77.4 µM; in the assay on NCI/ADR-RES ovarian, 91.7 µM. Also, the TGI in the assay with SW-620 colon is 46.2 µM; in the assay with SF-539 CNS it was more than 100 µM; with RXF 393 renal, 51.1 µM; with MOLT-4 leukemia it was more than 91.3 µM.

Regarding `COc1ccc2nc3cc(Cl)ccc3c(NC(C)CCCN(CCCl)CCCl)c2c1` (stereo not drawn), the TGI in the assay on CCRF-CEM leukemia turned out to be 1.12 µM; with OVCAR-8 ovarian it was 4.32 µM; in the assay with LOX IMVI melanoma it was 1.17 µM; with HOP-62 NSCLC, 7.38 µM; with SK-MEL-5 melanoma it was 7.89 µM; with SW-620 colon it was 2.07 µM. In addition, the TGI in the assay with SF-539 CNS is 3 µM; in the assay with RXF 393 renal, 4.9 µM; with MOLT-4 leukemia, 0.344 µM.

Regarding `Cc1ccc(S(=O)(=O)N(CC(O)COc2ccccc2)c2c(F)cccc2F)cc1` (stereo not drawn), the TGI in the assay on CCRF-CEM leukemia was 95.8 µM; in the assay with OVCAR-8 ovarian it was 35.5 µM; in the assay with LOX IMVI melanoma, 28.5 µM; in the assay with HOP-62 NSCLC it was 42.7 µM; in the assay with SK-MEL-5 melanoma it was 27.2 µM; in the assay on NCI/ADR-RES ovarian, 43.1 µM. For the same molecule, the TGI is 67.7 µM in the assay with SW-620 colon, 33 µM with SF-539 CNS, 26.1 µM in the assay on RXF 393 renal and more than 100 µM in the assay on MOLT-4 leukemia.

On to `COC(=O)c1cc2c(cc1Cl)Sc1nnc(Nc3ccccc3)n1S2(=O)=O`, for which the TGI in the assay on CCRF-CEM leukemia is 6.13 µM; in the assay on OVCAR-8 ovarian, more than 33.1 µM; in the assay with LOX IMVI melanoma, 93.6 µM; in the assay on HOP-62 NSCLC it was 5.52 µM; with SK-MEL-5 melanoma it was 21.2 µM; in the assay on NCI/ADR-RES ovarian it was 27.4 µM. Further, the TGI in the assay on SW-620 colon is 11.1 µM; in the assay on SF-539 CNS, 6.07 µM; with RXF 393 renal, 5.96 µM; in the assay with MOLT-4 leukemia, 6.34 µM.

In the case of `O=C1c2cc(O)c(O)cc2O[C@H](c2ccc(O)c(O)c2)[C@H]1O`, the TGI in the assay on CCRF-CEM leukemia, with OVCAR-8 ovarian, in the assay on LOX IMVI melanoma, with HOP-62 NSCLC, with SK-MEL-5 melanoma and in the assay on NCI/ADR-RES ovarian was more than 100 µM throughout. For the same molecule, the TGI in the assay on SW-620 colon, in the assay on SF-539 CNS and with MOLT-4 leukemia was more than 100 µM in each case.

In the case of `O=C1c2cc3c(cc2-c2c1c1ccc(Cl)cc1c(=O)n2C[C@H](O)CO)OCO3`, the GI50 in the assay on CCRF-CEM leukemia was less than 0.01 µM; in the assay on OVCAR-8 ovarian it was 0.0521 µM; with LOX IMVI melanoma, 0.0122 µM; in the assay on HOP-62 NSCLC, 0.022 µM; with SK-MEL-5 melanoma, 0.0322 µM; with NCI/ADR-RES ovarian, 0.0322 µM. Also, the GI50 was 0.02 µM with SW-620 colon, 0.0253 µM in the assay on SF-539 CNS, 0.0275 µM in the assay with RXF 393 renal and less than 0.01 µM in the assay on MOLT-4 leukemia. Also, the TGI was 24.2 µM with CCRF-CEM leukemia; 2.98 µM in the assay on OVCAR-8 ovarian; 0.0781 µM with LOX IMVI melanoma; 1.51 µM in the assay with HOP-62 NSCLC; 0.114 µM with SK-MEL-5 melanoma; 1.12 µM with NCI/ADR-RES ovarian. Further, the TGI was found to be 1.02 µM with SW-620 colon, 0.093 µM in the assay with SF-539 CNS, 0.126 µM in the assay on RXF 393 renal and 12.4 µM with MOLT-4 leukemia.

`O=C1c2ccccc2C(=O)c2[nH]cnc21`: the TGI was more than 100 µM with CCRF-CEM leukemia; more than 100 µM in the assay with OVCAR-8 ovarian; more than 100 µM with HOP-62 NSCLC; 34.2 µM in the assay on SK-MEL-5 melanoma; more than 100 µM in the assay on SF-539 CNS; more than 100 µM in the assay on RXF 393 renal. The TGI in the assay with MOLT-4 leukemia was more than 100 µM.

In the case of `Cc1ccc(S(=O)(=O)OC2CC(C(C)(C)C)CCC2c2ccccc2)cc1` (stereo not drawn), the TGI with OVCAR-8 ovarian, in the assay with LOX IMVI melanoma, with HOP-62 NSCLC, with SK-MEL-5 melanoma, in the assay on NCI/ADR-RES ovarian and in the assay with SW-620 colon was more than 100 µM each time. The TGI in the assay on SF-539 CNS, in the assay with RXF 393 renal and in the assay on MOLT-4 leukemia was more than 100 µM in each case.

As for `CCOC(=O)c1c2c(n(-c3ccc(C)cc3)c1C)-c1ccccc1C(=O)C2(C(=O)OCC)C(=O)OCC`, the TGI in the assay on CCRF-CEM leukemia was more than 100 µM; in the assay on OVCAR-8 ovarian, 98.4 µM; with LOX IMVI melanoma, more than 84.5 µM; in the assay with HOP-62 NSCLC, more than 100 µM; in the assay on SK-MEL-5 melanoma, 50.4 µM; in the assay with NCI/ADR-RES ovarian it was more than 85.3 µM. The TGI was more than 100 µM with SW-620 colon, more than 71.9 µM with SF-539 CNS, 75.2 µM with RXF 393 renal and more than 4.64 µM with MOLT-4 leukemia.

Take `CN1C(=O)CC(=O)N1/C(=C/c1ccccc1)c1ccccc1`: the TGI with CCRF-CEM leukemia is 54.3 µM; with OVCAR-8 ovarian, more than 100 µM; in the assay on LOX IMVI melanoma it was 31.2 µM; in the assay with HOP-62 NSCLC, more than 100 µM; in the assay with SK-MEL-5 melanoma it was more than 100 µM; in the assay with NCI/ADR-RES ovarian, more than 100 µM. For the same molecule, the figures for the TGI in the assay with SW-620 colon, in the assay with RXF 393 renal and in the assay with MOLT-4 leukemia were more than 100 µM, 54.1 µM and 55.5 µM, respectively.

In the case of `CCN(CC)CCNc1ccc2ncn3c4ccc(O)cc4c(=O)c1c23`, the TGI in the assay on CCRF-CEM leukemia is 16.5 µM; in the assay with OVCAR-8 ovarian, 9.55 µM; in the assay on LOX IMVI melanoma, 3.15 µM; with HOP-62 NSCLC, 11.6 µM; in the assay on SK-MEL-5 melanoma, 10.4 µM; with NCI/ADR-RES ovarian, 16.1 µM. Further, the TGI with SW-620 colon amounted to 8.84 µM; in the assay with SF-539 CNS, 16.9 µM; in the assay on RXF 393 renal it was 1.96 µM; with MOLT-4 leukemia, 3.59 µM.

As to `C=CCNC(=O)C(C)C1CCC2(C)C=CC(=O)C(C)=C2C1O` (stereo not drawn), the TGI in the assay on CCRF-CEM leukemia, in the assay with OVCAR-8 ovarian, in the assay with LOX IMVI melanoma, in the assay on HOP-62 NSCLC, in the assay on SK-MEL-5 melanoma and with NCI/ADR-RES ovarian was more than 100 µM each time. Besides, the TGI in the assay with SW-620 colon, in the assay with SF-539 CNS, in the assay with RXF 393 renal and in the assay on MOLT-4 leukemia was more than 100 µM throughout.

With `CSCCC(C(=O)O)N(C)C` (stereo not drawn), the TGI with CCRF-CEM leukemia, in the assay on OVCAR-8 ovarian, in the assay on LOX IMVI melanoma, with HOP-62 NSCLC, with SK-MEL-5 melanoma and with NCI/ADR-RES ovarian was more than 100 µM throughout. The TGI in the assay with SW-620 colon, with SF-539 CNS and in the assay on RXF 393 renal was more than 100 µM each time.

As to `O=C(CSCC(=O)N/N=C/c1cccc(O)c1)N/N=C/c1cccc(O)c1`, the TGI with OVCAR-8 ovarian, in the assay on HOP-62 NSCLC, in the assay with SK-MEL-5 melanoma, with NCI/ADR-RES ovarian, in the assay with SW-620 colon and in the assay on SF-539 CNS was more than 100 µM in each case. Moreover, the TGI in the assay on RXF 393 renal and in the assay on MOLT-4 leukemia was more than 100 µM each time.
